In patent publication US20150119399A1, “BETA-CELL REPLICATION PROMOTING COMPOUNDS AND METHODS OF THEIR USE” (President and Fellows of Harvard College, priority 2012, published 2015):
“Also recorded” adds a separate entry of the source. Like-named read-outs stand apart in the source and are kept apart here.

How the values were obtained:
alpha-cells = test: alpha-cell replication in dissociated rat islet cells (glucagon/ki-67 imaging); type: cell-based; conditions: compound for 48 hours
Protocol: (§1) Rat islets were isolated and plated as previously described. In brief, rat islets were disassociated using 0.25% trypsin to obtain single cell suspension with occasional clusters of 2-3 cells. These cells were then plated in a 96-well format at a density of 80 k cells/well. The wells were pre-treated with conditioned media produced by the rat bladder carcinoma cell line 804G. After 48-hours, the cells were treated with compound at the indicated concentration or vehicle alone for 48 hours. The cells were then fixed and stained as previously described for the beta-cell marker PDX-1 and the replication marker ki-67. The beta-cell replication rate (the percentage of PDX-1^+ Cells that co-expressed ki-67) was quantified via automated imaging acquisition and analysis using a Cellomic ArrayScan. Each experimental was performed in replicas of four. p-values indicate a 2-tailed T-Test.
(§2) To quantify beta-cell replication rate, cells were identified as beta-cells if the contained both nuclear PDX-1 expression and cytoplasmic insulin staining. Replicating beta-cells were identified by the co-staining for ki-67. Alpha-cell replication was determined by determining the fraction of alpha-cells that co-expressed ki67. An alpha-cell was defined by the presence of cytoplasmic glucagon staining and the absence of nuclear PDX-1 staining. The fraction of dividing alpha-cells was determined by the proportion of alpha cells that co-expressed ki-67.

beta-cells = test: beta-cell replication in dissociated rat islet cells (PDX-1/ki-67 imaging); type: cell-based; conditions: compound for 48 hours, relative to vehicle/DMSO control
Protocol: as §1, §2

wild-type mice [1] = test: glucose tolerance in wild-type mice; type: in vivo, mouse
wild-type mice [2] = test: plasma GLP-1 levels in vivo; conditions: 30 minutes after treatment, 0.3 mg/kg Tadalafil, 0.25 mg/kg Dipyridamole, 0.45 mg/kg Vardenafil
[3] = system: diet-induced obesity (DIO) mice; test: glucose tolerance in diet-induced obesity (DIO) mice; type: in vivo; conditions: diet-induced obesity (DIO) mouse model of human diabetes
GLP-1R signaling = test: glucose tolerance via GLP-1R signaling; conditions: FIGS. 15A-15C
isolated rat islets = test: in vitro islet insulin secretion assay, rat islets; conditions: for islet insulin secretion: isolated rat islets
[4] = plasma insulin levels in vivo after intraperitoneal glucose; conditions: 30 minutes after treatment and intraperitoneal (IP) delivery of glucose, compared to DMSO
diabetic DB mice = test: glucose tolerance in diabetic DB mice; type: in vivo, mouse; conditions: for glucose tolerance: compound by itself
human islets = test: in vitro islet insulin secretion assay, human islets; type: cell-based
recombinant PDE5 = recombinant PDE5 (Homo sapiens, UniProt O76074); conditions: in vitro selectivity assay using recombinant PDE
Text: Rows list the PDE inhibitors. Columns list the recombinant human PDE enzymes.

[5] = system: primary intestinal crypt culture; test: endogenous GLP-1 secretion in primary intestinal crypt culture; conditions: compared to control
[6] = co-administered with DPP-4 inhibitor Sitagliptin, wild-type mice (FIG. 11), Tadalafil data not shown
[7] = wild-type mice, compound by itself
[8] = wild-type mice, in combination with Exendin-4

| SMILES | alpha-cell replication (fraction of alpha-cells that co-expressed ki67) (alpha-cells) | beta-cell replication (percentage of PDX-1+ cells that co-expressed ki-67) (beta-cells) | glucose tolerance / blood glucose levels (wild-type mice [1]; [6]) | glucose tolerance (wild-type mice [1]; [7]) | glucose tolerance / blood glucose levels (wild-type mice [1]; [8]) | plasma GLP-1 levels (wild-type mice [2]) | glucose tolerance via GLP-1R signaling (GLP-1R signaling) | islet insulin secretion (isolated rat islets) | also measured |
| --- | --- | --- | --- | --- | --- | --- | --- | --- | --- |
| COc1cc(-c2ccc(=O)[nH]n2)ccc1OC(F)F [Zardaverine, 6-[4-(Difluoromethoxy)-3-methoxyphenyl]-3(2H)-pyridazinone] | enhanced alpha-cell replication | enhanced beta-cell replication | – | – | – | – | – | – | – |
| COc1cc2c(cc1OC)-c1c/c(=N\c3c(C)cc(C)cc3C)n(C)c(=O)n1CC2 [Trequinsin] | enhanced alpha-cell replication | enhanced beta-cell replication | – | – | – | – | – | – | – |
| CN1CC(=O)N2[C@H](c3ccc4c(c3)OCO4)c3[nH]c4ccccc4c3C[C@@H]2C1=O [Tadalafil, (6R-trans)-6-(1,3-benzodioxol-5-yl)-2,3,6,7,12,12a-hexahydro-2-methyl-pyrazino[1′,2′:1,6]pyrido[3,4-b]indole-1,4-dione] | – | did not increase beta-cell replication | act in concert with Sitagliptin to improve glucose tolerance and lower blood glucose levels | improves glucose tolerance | acts additively with Exendin-4 to lower glucose levels | significantly increase plasma GLP-1 levels | improve glucose tolerance via GLP-1R signaling | do not enhance islet insulin secretion; also recorded: Neither Tadalafil (FIG. 4A) nor Vardenafil (FIG. 4B) significantly enhanced insulin secretion | glucose tolerance [3]: improves glucose tolerance; plasma insulin levels [4]: increased plasma insulin levels; also recorded: significantly increase plasma insulin levels |
| CN(C(=O)CCCOc1ccc2[nH]c(=O)ccc2c1)C1CCCCC1 [Cilostamide] | enhanced alpha-cell replication | enhanced beta-cell replication | – | – | – | – | – | – | – |
| OCCN(CCO)c1nc(N2CCCCC2)c2nc(N(CCO)CCO)nc(N3CCCCC3)c2n1 [Dipyridamole, 2,6-bis-(diethanolamino)-4,8-dipiperidino-(5,4-d)-pyrimidine] | does not; also recorded: did not | enhanced beta-cell replication; also recorded: double replication effect | acts in concert with dipeptidyl peptidase-4 (DPP-4) inhibitor Sitagliptin to improve glucose tolerance; also recorded: act in concert with Sitagliptin to improve glucose tolerance and lower blood glucose levels | enhances glucose tolerance | enhances glucose tolerance; also recorded: acts additively with Exendin-4 to lower blood glucose levels | significantly increase plasma GLP-1 levels | improve glucose tolerance via GLP-1R signaling | significantly enhanced insulin secretion | glucose tolerance (diabetic DB mice): enhances glucose tolerance; glucose tolerance (diabetic DB mice; listed as dipyridamole): improves glucose tolerance; glucose tolerance / blood glucose levels (diabetic DB mice; in combination with Exendin-4): enhances glucose tolerance; also recorded: acts additively with Exendin-4 to lower blood glucose levels; glucose tolerance / blood glucose levels (diabetic DB mice; in combination with Exendin-4, listed as dipyridamole): enhances glucose tolerance; islet insulin secretion (human islets): significantly enhanced insulin secretion; effect of Exendin-4 on glucose-stimulated insulin secretion (human islets; in combination with Exendin-4): enhances the effect of Exendin-4 on glucose-stimulated insulin secretion; islet insulin secretion (human islets; listed as dipyridamole): enhances insulin secretion; glucose tolerance (wild-type mice [1]; wild-type mice, compound by itself, listed as dipyridamole): improves glucose tolerance; glucose tolerance / blood glucose levels (wild-type mice [1]; wild-type mice, in combination with Exendin-4, listed as dipyridamole): enhances glucose tolerance; glucose tolerance (wild-type mice [1]; wild-type mice, oral administration): improves glucose tolerance; inhibition of PDE5 (inhibitor class) (recombinant PDE5): effective inhibitor (the inhibitor exhibits at least 50% inhibition of enzymatic activity in an in vitro selectivity assay using a recombinant PDE); endogenous GLP-1 secretion [5]: at least about twice; islet insulin secretion (isolated rat islets; listed as dipyridamole): enhances insulin secretion; effect of Exendin-4 on glucose-stimulated insulin secretion (isolated rat islets; rat islets, in combination with Exendin-4): enhances the effect of Exendin-4 on glucose-stimulated insulin secretion; beta-cell replication (percentage of PDX-1+ cells that co-expressed ki-67) (beta-cells; listed as Dioyridamole): enhanced beta-cell replication |
